Measured values taken from patent publication US11357779B2 (G1 Therapeutics, Inc., priority 2018, dated 2022).
Read-outs that look alike come from different tables or passages of the source.

Experiment: Noncompartmental pharmacokinetic parameters (Cmax, Tmax, AUC, Racc) in QD and BID cohorts of Form B
Assay type: in vivo, human
Settings: human, plasma, oral, Compound III
Protocol: Analysis of plasma concentration versus time data for calculation of standard pharmacokinetic (PK) parameters following oral administration was conducted using Phoenix WinNonlin version 6.3 using actual blood sampling times.
The following pharmacokinetic parameters were calculated from the concentration versus time data obtained in Example 1 for each of the above QD (200 mg, 300 mg, 400 mg, 500 mg, or 650 mg dosed) and BID (100 mg, 150 mg, or 200 mg doses) Form B of Compound II dosage cohorts: • Cmax—the observed peak plasma concentration determined from the plasma concentration versus time data obtained on Day 1 and Day 29, as applicable; • Tmax—the time to reach the observed peak plasma concentration from the plasma concentration versus time data obtained on Day 1 and Day 29, as applicable; • AUC—area under the plasma concentration versus time curve during a dosing interval on Day 1 and Day 29, as applicable; and • Racc—accumulation ratio calculated as AUCDay 29/AUCDay 1.

O=C1NCC2(CCCCC2)n2c1cc1cnc(Nc3ccc(N4CCNCC4)cn3)nc12 [Compound III, 2′-((5-(piperazin-1-yl)pyridin-2-yl)amino)-7′,8′-dihydro-6′H-spiro[cyclohexane-1,9′-pyrazino[1′,2′:1,5]pyrrolo[2,3-d]pyrimidin]-6′-one]
AUC(0-t) (150 mg, 150 mg BID of Form B, Cohort 7, Day 1, read-out: AUClast (Median)): 16.3 ng·h/mL | Cmax (150 mg, 150 mg BID of Form B, Cohort 7, Day 1, read-out: Cmax (Mean)): 3.2 ng/mL | Cmax (150 mg, 150 mg BID of Form B, Cohort 7, Day 1, read-out: Cmax (Median)): 3 ng/mL | Tmax (150 mg, 150 mg BID of Form B, Cohort 7, Day 1, read-out: Tmax (Mean)): 3 h | Tmax (150 mg, 150 mg BID of Form B, Cohort 7, Day 1, read-out: Tmax (Median)): 3 h | AUC(0-t) (150 mg, 150 mg BID of Form B, Cohort 7, Day 29, read-out: AUClast (Mean)): 47.9 ng·h/mL | AUC(0-t) (150 mg, 150 mg BID of Form B, Cohort 7, Day 29, read-out: AUClast (Median)): 23.3 ng·h/mL | Cmax (150 mg, 150 mg BID of Form B, Cohort 7, Day 29, read-out: Cmax (Mean)): 6.23 ng/mL | Cmax (150 mg, 150 mg BID of Form B, Cohort 7, Day 29, read-out: Cmax (Median)): 3.55 ng/mL | Tmax (150 mg, 150 mg BID of Form B, Cohort 7, Day 29, read-out: Tmax (Mean)): 3 h | Tmax (150 mg, 150 mg BID of Form B, Cohort 7, Day 29, read-out: Tmax (Median)): 3 h | AUC(0-t) (200 mg, 200 mg BID of Form B, Cohort 8, Day 1, read-out: AUClast (Mean)): 17.2 ng·h/mL | AUC(0-t) (200 mg, 200 mg BID of Form B, Cohort 8, Day 1, read-out: AUClast (Median)): 18.6 ng·h/mL | Cmax (200 mg, 200 mg BID of Form B, Cohort 8, Day 1, read-out: Cmax (Mean)): 2.87 ng/mL | Cmax (200 mg, 200 mg BID of Form B, Cohort 8, Day 1, read-out: Cmax (Median)): 3 ng/mL | Tmax (200 mg, 200 mg BID of Form B, Cohort 8, Day 1, read-out: Tmax (Mean)): 4.75 h | Tmax (200 mg, 200 mg BID of Form B, Cohort 8, Day 1, read-out: Tmax (Median)): 5 h | AUC(0-t) (200 mg, 200 mg BID of Form B, Cohort 8, Day 29, read-out: AUClast (Mean)): 22 ng·h/mL | AUC(0-t) (200 mg, 200 mg BID of Form B, Cohort 8, Day 29, read-out: AUClast (Median)): 20.1 ng·h/mL | Cmax (200 mg, 200 mg BID of Form B, Cohort 8, Day 29, read-out: Cmax (Mean)): 2.79 ng/mL | Cmax (200 mg, 200 mg BID of Form B, Cohort 8, Day 29, read-out: Cmax (Median)): 2.77 ng/mL | Tmax (200 mg, 200 mg BID of Form B, Cohort 8, Day 29, read-out: Tmax (Mean)): 6.33 h | Tmax (200 mg, 200 mg BID of Form B, Cohort 8, Day 29, read-out: Tmax (Median)): 4 h | AUC(0-t) (200 mg, 200 mg QD of Form B, Cohort 1, Day 1, read-out: AUClast (Mean)): 23.7 ng·h/mL | AUC(0-t) (200 mg, 200 mg QD of Form B, Cohort 1, Day 1, read-out: AUClast (Median)): 21.3 ng·h/mL | Cmax (200 mg, 200 mg QD of Form B, Cohort 1, Day 1, read-out: Cmax (Mean)): 4.18 ng/mL | Cmax (200 mg, 200 mg QD of Form B, Cohort 1, Day 1, read-out: Cmax (Median)): 3.88 ng/mL | Tmax (200 mg, 200 mg QD of Form B, Cohort 1, Day 1, read-out: Tmax (Mean)): 4.17 h | Tmax (200 mg, 200 mg QD of Form B, Cohort 1, Day 1, read-out: Tmax (Median)): 4 h | AUC(0-t) (200 mg, 200 mg QD of Form B, Cohort 1, Day 29, read-out: AUClast (Mean)): 27.9 ng·h/mL | AUC(0-t) (200 mg, 200 mg QD of Form B, Cohort 1, Day 29, read-out: AUClast (Median)): 25.4 ng·h/mL | Cmax (200 mg, 200 mg QD of Form B, Cohort 1, Day 29, read-out: Cmax (Mean)): 3.14 ng/mL | Cmax (200 mg, 200 mg QD of Form B, Cohort 1, Day 29, read-out: Cmax (Median)): 2.52 ng/mL | Tmax (200 mg, 200 mg QD of Form B, Cohort 1, Day 29, read-out: Tmax (Mean)): 4.2 h | Tmax (200 mg, 200 mg QD of Form B, Cohort 1, Day 29, read-out: Tmax (Median)): 4 h | AUC(0-t) (300 mg, 300 mg QD of Form B, Cohort 2, Day 1, read-out: AUClast (Mean)): 43.1 ng·h/mL | AUC(0-t) (300 mg, 300 mg QD of Form B, Cohort 2, Day 1, read-out: AUClast (Median)): 53.1 ng·h/mL | Cmax (300 mg, 300 mg QD of Form B, Cohort 2, Day 1, read-out: Cmax (Mean)): 4.81 ng/mL | Cmax (300 mg, 300 mg QD of Form B, Cohort 2, Day 1, read-out: Cmax (Median)): 6.21 ng/mL | Tmax (300 mg, 300 mg QD of Form B, Cohort 2, Day 1, read-out: Tmax (Mean)): 3.67 h | Tmax (300 mg, 300 mg QD of Form B, Cohort 2, Day 1, read-out: Tmax (Median)): 4 h | AUC(0-t) (300 mg, 300 mg QD of Form B, Cohort 2, Day 29, read-out: AUClast (Mean)): 66.2 ng·h/mL | AUC(0-t) (300 mg, 300 mg QD of Form B, Cohort 2, Day 29, read-out: AUClast (Median)): 56.1 ng·h/mL | Cmax (300 mg, 300 mg QD of Form B, Cohort 2, Day 29, read-out: Cmax (Mean)): 5.44 ng/mL | Cmax (300 mg, 300 mg QD of Form B, Cohort 2, Day 29, read-out: Cmax (Median)): 5.56 ng/mL | Tmax (300 mg, 300 mg QD of Form B, Cohort 2, Day 29, read-out: Tmax (Mean)): 5.33 h | Tmax (300 mg, 300 mg QD of Form B, Cohort 2, Day 29, read-out: Tmax (Median)): 4 h | AUC(0-t) (400 mg, 400 mg QD of Form B, Cohort 3, Day 1, read-out: AUClast (Mean)): 25.6 ng·h/mL | AUC(0-t) (400 mg, 400 mg QD of Form B, Cohort 3, Day 1, read-out: AUClast (Median)): 29.2 ng·h/mL | Cmax (400 mg, 400 mg QD of Form B, Cohort 3, Day 1, read-out: Cmax (Mean)): 4.85 ng/mL | Cmax (400 mg, 400 mg QD of Form B, Cohort 3, Day 1, read-out: Cmax (Median)): 4.66 ng/mL | Tmax (400 mg, 400 mg QD of Form B, Cohort 3, Day 1, read-out: Tmax (Mean)): 4.33 h | Tmax (400 mg, 400 mg QD of Form B, Cohort 3, Day 1, read-out: Tmax (Median)): 6 h | AUC(0-t) (400 mg, 400 mg QD of Form B, Cohort 3, Day 29, read-out: AUClast (Mean)): 42.6 ng·h/mL | AUC(0-t) (400 mg, 400 mg QD of Form B, Cohort 3, Day 29, read-out: AUClast (Median)): 40.9 ng·h/mL | Cmax (400 mg, 400 mg QD of Form B, Cohort 3, Day 29, read-out: Cmax (Mean)): 3.5 ng/mL | Cmax (400 mg, 400 mg QD of Form B, Cohort 3, Day 29, read-out: Cmax (Median)): 3.4 ng/mL | Tmax (400 mg, 400 mg QD of Form B, Cohort 3, Day 29, read-out: Tmax (Mean)): 5.33 h | Tmax (400 mg, 400 mg QD of Form B, Cohort 3, Day 29, read-out: Tmax (Median)): 6 h | AUC(0-t) (500 mg, 500 mg QD of Form B, Cohort 4, Day 1, read-out: AUClast (Mean)): 77.7 ng·h/mL | AUC(0-t) (500 mg, 500 mg QD of Form B, Cohort 4, Day 1, read-out: AUClast (Median)): 79 ng·h/mL | Cmax (500 mg, 500 mg QD of Form B, Cohort 4, Day 1, read-out: Cmax (Mean)): 7.98 ng/mL | Cmax (500 mg, 500 mg QD of Form B, Cohort 4, Day 1, read-out: Cmax (Median)): 8.03 ng/mL | Tmax (500 mg, 500 mg QD of Form B, Cohort 4, Day 1, read-out: Tmax (Mean)): 5.5 h | Tmax (500 mg, 500 mg QD of Form B, Cohort 4, Day 1, read-out: Tmax (Median)): 6 h | AUC(0-t) (500 mg, 500 mg QD of Form B, Cohort 4, Day 29, read-out: AUClast (Mean)): 66.4 ng·h/mL | AUC(0-t) (500 mg, 500 mg QD of Form B, Cohort 4, Day 29, read-out: AUClast (Median)): 69.6 ng·h/mL | Cmax (500 mg, 500 mg QD of Form B, Cohort 4, Day 29, read-out: Cmax (Mean)): 5.98 ng/mL | Cmax (500 mg, 500 mg QD of Form B, Cohort 4, Day 29, read-out: Cmax (Median)): 5.37 ng/mL | Tmax (500 mg, 500 mg QD of Form B, Cohort 4, Day 29, read-out: Tmax (Mean)): 3.67 h | Tmax (500 mg, 500 mg QD of Form B, Cohort 4, Day 29, read-out: Tmax (Median)): 4 h | AUC(0-t) (650 mg, 650 mg QD of Form B, Cohort 5, Day 1, read-out: AUClast (Mean)): 123 ng·h/mL | AUC(0-t) (650 mg, 650 mg QD of Form B, Cohort 5, Day 1, read-out: AUClast (Median)): 125 ng·h/mL | Cmax (650 mg, 650 mg QD of Form B, Cohort 5, Day 1, read-out: Cmax (Mean)): 10.9 ng/mL | Cmax (650 mg, 650 mg QD of Form B, Cohort 5, Day 1, read-out: Cmax (Median)): 10.4 ng/mL | Tmax (650 mg, 650 mg QD of Form B, Cohort 5, Day 1, read-out: Tmax (Mean)): 6.67 h | Tmax (650 mg, 650 mg QD of Form B, Cohort 5, Day 1, read-out: Tmax (Median)): 7 h | AUC(0-t) (650 mg, 650 mg QD of Form B, Cohort 5, Day 29, read-out: AUClast (Mean)): 125 ng·h/mL | AUC(0-t) (650 mg, 650 mg QD of Form B, Cohort 5, Day 29, read-out: AUClast (Median)): 125 ng·h/mL | Cmax (650 mg, 650 mg QD of Form B, Cohort 5, Day 29, read-out: Cmax (Mean)): 8.7 ng/mL | Cmax (650 mg, 650 mg QD of Form B, Cohort 5, Day 29, read-out: Cmax (Median)): 8.7 ng/mL | Tmax (650 mg, 650 mg QD of Form B, Cohort 5, Day 29, read-out: Tmax (Mean)): 7 h | Tmax (650 mg, 650 mg QD of Form B, Cohort 5, Day 29, read-out: Tmax (Median)): 7 h
